In ChEMBL document CHEMBL5034039, “Discovery of Novel, Orally Bioavailable Pyrimidine Ether-Based Inhibitors of ELOVL1” (J Med Chem, 2021):

Assays:
[1] = biological target: T1, Very long chain fatty acid elongase 1 (Homo sapiens, UniProt Q9BW60); assay: Inhibition of ELOVL1 in HEK293 cells assessed as reduction of C26:0 lipo phosphatidyl choline synthesis; format: cell-based
T1 sequence (Q9BW60 whole entry): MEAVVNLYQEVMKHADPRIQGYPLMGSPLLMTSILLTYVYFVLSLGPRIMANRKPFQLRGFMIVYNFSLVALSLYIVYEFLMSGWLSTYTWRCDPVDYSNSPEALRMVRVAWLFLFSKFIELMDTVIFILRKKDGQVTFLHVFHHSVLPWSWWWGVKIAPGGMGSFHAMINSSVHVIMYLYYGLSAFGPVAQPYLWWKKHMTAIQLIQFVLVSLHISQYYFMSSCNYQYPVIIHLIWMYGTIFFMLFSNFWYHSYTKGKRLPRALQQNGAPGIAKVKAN

[2] = Intrinsic clearance in rat hepatocytes assessed per million cells; format: ADME, cell-based, Hepatocyte; details: read-out: CLH
[3] = Lipophilicity, logD of the compound at pH 7.4; format: physicochemical; details: buffer
[4] = Reduction in C26:0/C16:0 LPC level in ABCD1 knock out mouse CNS at 10 mg/kg, po qd and measured after 3 months relative to control; format: functional; set-up: scale not given: the % may be the effect or the level left; details: 2190 h
[5] = Reduction in C26:0/C16:0 LPC level in ABCD1 knock out mouse CNS at 10 mg/kg, po qd and measured after 8 months relative to control; format: functional; set-up: scale not given: the % may be the effect or the level left; details: 5840 h

Row | SMILES | IC50 [1] [nM] | hepatocyte CLint [2] [µL/min/1e6 cells] | logD [3] | Activity [4] [%] | Activity [5] [%]
1 | Cc1ccnn1CCCOc1cc(N2CCOC(c3ccnn3C)C2)ncn1 (stereo unspecified) | 140 | 23 | 2.1 |  | 
2 | Fc1ccc(CCOc2cc(N3CCCCCC3)ncn2)cc1 | 230 | 273 | 5.3 |  | 
3 | O=C(Nc1ccn(-c2ccnc(F)c2)n1)C1(c2ccccc2F)CC1 |  |  |  | 34 | 65
4 | Cc1ccnn1CCOc1cc(N2CCCCC2)ncn1 | 140 | 366 | 2.8 |  | 
5 | Cc1ccnn1CCCOc1cc(N2CCOC3(COC3)C2)ncn1 | 120 | 13 | 1.6 |  | 
6 | Fc1ccc(CCOc2cc(N3CCCC3)ncn2)cc1 | 430 | 273 | 3.9 |  | 
7 | CN(c1cc(OCCc2ccc(F)cc2)ncn1)C1CCOC1 (stereo unspecified) | 60 | 327 | 3.6 |  | 
8 | CN(C)c1cc(OCCc2ccc(F)cc2)ncn1 | 60 | 539 | 3.6 |  | 

Further lines, with some results ahead:

Row | IC50 [1] [nM] | hepatocyte CLint [2] [µL/min/1e6 cells] | logD [3] | SMILES | Activity [4] [%] | Activity [5] [%]
9 | 15 | 11 | 5.7 | c1ccc([C@H]2CN(c3cc(O[C@H]4C[C@@H](c5ccccc5)C4)ncn3)CCO2)cc1 |  | 
10 | 7 | 111 | 3.8 | Cc1ccnn1CCCOc1cc(N2CCOC(c3ccccc3)C2)ncn1 (stereo unspecified) |  | 
11 | 0.6 | 9.2 | 3.1 | Fc1cnn([C@H]2C[C@H](c3cc(O[C@H]4C[C@@H](n5cccn5)C4)ncn3)C2)c1 |  | 
12 | 7 | 194 | 2.9 | Cc1ccnn1CCCOc1cc(N2CCOC(C(F)(F)F)C2)ncn1 (stereo unspecified) |  | 
13 | 10 | 5.6 | 2.6 | c1cnn([C@H]2C[C@@H](Oc3cc([C@H]4C[C@H](n5cccn5)C4)ncn3)C2)c1 |  | 
14 | 5 | 17 | 3.9 | c1ccc([C@H]2CN(c3cc(O[C@H]4C[C@@H](c5ncco5)C4)ncn3)CCO2)cc1 |  | 
